Measurements as given in ChEMBL document CHEMBL1949628, “Discovery of aminopiperidine-based Smac mimetics as IAP antagonists” (Bioorg Med Chem Lett, 2012).
pEC50, pIC50, pKd: −log10 of the molar value.

Legend:
[1] = biological target: T1, Baculoviral IAP repeat-containing protein 2 (Homo sapiens, UniProt Q13490); assay: Antagonist activity at GST-tagged BIR3 domain of cIAP1 using AbuRPFK-5FAM after 20 mins by fluorescence polarization assay; assay type: functional
[2] = biological target: T1, Baculoviral IAP repeat-containing protein 2; assay: Antagonist activity at cIAP1 in human MDA-MB-231 cells assessed as cIAP1 degradation after 1 hr by ELISA; assay type: functional, cell-based
MDA-MB-231 [3] = assay: Antiproliferative activity against human MDA-MB-231 cells assessed as cell growth at 0.13951 uM after 48 hrs by alamar blue assay relative to control; assay type: functional; conditions: MDA-MB-231, 48 h, read-out: Activity
MDA-MB-231 [4] = assay: Antiproliferative activity against human MDA-MB-231 cells assessed as cell growth at 1.25556 uM after 48 hrs by alamar blue assay relative to control; assay type: functional; conditions: MDA-MB-231, 48 h, read-out: Activity
MDA-MB-231 [5] = assay: Antiproliferative activity against human MDA-MB-231 cells assessed as cell growth at 0.41852 uM after 48 hrs by alamar blue assay relative to control; assay type: functional; conditions: MDA-MB-231, 48 h, read-out: Activity
MDA-MB-231 [6] = assay: Antiproliferative activity against human MDA-MB-231 cells assessed as cell growth at 3.76667 uM after 48 hrs by alamar blue assay relative to control; assay type: functional; conditions: MDA-MB-231, 48 h, read-out: Activity
MDA-MB-231 [7] = assay: Antiproliferative activity against human MDA-MB-231 cells assessed as cell growth at 11.3 uM after 48 hrs by alamar blue assay relative to control; assay type: functional; conditions: MDA-MB-231, 48 h, read-out: Activity
MDA-MB-231 [8] = assay: Antiproliferative activity against human MDA-MB-231 cells after 48 hrs by alamar blue assay; assay type: functional; conditions: MDA-MB-231, 48 h
[9] = Lipophilicity, log D of the compound; assay type: physicochemical; conditions: octanol/water
[10] = biological target: T2, E3 ubiquitin-protein ligase XIAP (Homo sapiens, UniProt P98170); assay: Binding affinity to GST-tagged BIR3 domain of XIAP by isothermal titration calorimetry
[11] = biological target: T2, E3 ubiquitin-protein ligase XIAP; assay: Antagonist activity at GST-tagged BIR3 domain of XIAP using AbuRPFK-5FAM after 20 mins by fluorescence polarization assay; assay type: functional
MDA-MB-231 [12] = assay: Antiproliferative activity against human MDA-MB-231 cells assessed as cell growth at 0.0465 uM after 48 hrs by alamar blue assay relative to control; assay type: functional; conditions: MDA-MB-231, 48 h, read-out: Activity
MDA-MB-231 [13] = assay: Antiproliferative activity against human MDA-MB-231 cells assessed as cell growth at 0.0155 uM after 48 hrs by alamar blue assay relative to control; assay type: functional; conditions: MDA-MB-231, 48 h, read-out: Activity
MDA-MB-231 [14] = assay: Antiproliferative activity against human MDA-MB-231 cells assessed as cell growth at 0.00517 uM after 48 hrs by alamar blue assay relative to control; assay type: functional; conditions: MDA-MB-231, 48 h, read-out: Activity
MDA-MB-231 [15] = assay: Antiproliferative activity against human MDA-MB-231 cells assessed as cell growth at 0.00172 uM after 48 hrs by alamar blue assay relative to control; assay type: functional; conditions: MDA-MB-231, 48 h, read-out: Activity

| Structure (SMILES) | pIC50 [1] | pEC50 [2] | further results |
| --- | --- | --- | --- |
| CN[C@@H](C)C(=O)N[C@H](C(=O)N[C@H]1CCCN(S(=O)(=O)c2ccccc2)C1)C(C)(C)C | 5.24 | – | – |
| CN[C@@H](C)C(=O)N[C@H](C(=O)N[C@H]1CCCN(CCc2ccc(O)cc2)C1)C(C)(C)C | 7.38 | 7.17 | – |
| CN[C@@H](C)C(=O)N[C@H](C(=O)N[C@H]1CCCCN(Cc2ccccc2)C1)C1CCCCC1 | 6.57 | – | – |
| CN[C@@H](C)C(=O)N[C@H](C(=O)N[C@H]1CCCN(CC(c2ccccc2)c2ccccc2)C1)C1CCCCC1 | 7.21 | – | – |
| CN[C@@H](C)C(=O)N[C@H](C(=O)N[C@H]1CCCN(CCc2ccc(C)cc2)C1)C(C)(C)C | 7.52 | 7.22 | – |
| CN[C@@H](C)C(=O)N[C@H](C(=O)N[C@H]1CCCN(CCc2c[nH]c3ccccc23)C1)C(C)(C)C | 6.94 | 6.73 | – |
| CN[C@@H](C)C(=O)N[C@H](C(=O)N[C@H]1CCCN(Cc2ccccc2)C1)C1CCCCC1 | 5.77 | – | – |
| CN[C@@H](C)C(=O)N[C@H](C(=O)N(C)[C@H]1CCCN(CCc2ccccc2)C1)C1CCCCC1 | 7.36 | – | – |
| CN[C@@H](C)C(=O)N[C@H](C(=O)N[C@H]1CCCN(CCc2cccc(OC)c2)C1)C(C)(C)C | 7.28 | 6.79 | – |
| CN[C@@H](C)C(=O)N[C@H](C(=O)N[C@H]1CCCN(CCc2ccc(OC)cc2)C1)C(C)(C)C | 7.05 | 6.80 | – |
| CN[C@@H](C)C(=O)N[C@H](C(=O)N[C@H]1CCN(C(=O)c2ccccc2)C1)C1CCCCC1 | 5.30 | – | – |
| CN[C@@H](C)C(=O)N[C@H](C(=O)N[C@H]1CCCN(CCc2ccc(F)cc2)C1)C1CCCCC1 | 7.74 | 7.24 | – |
| CN[C@@H](C)C(=O)N[C@H](C(=O)N[C@H]1CCCN(CCc2ccccn2)C1)C(C)(C)C | 6.52 | < 6.43 | – |
| CN[C@@H](C)C(=O)N[C@H](C(=O)N[C@H]1C[C@@H]2CC[C@H]1N(CCc1ccccc1)C2)C1CCCCC1 | 8.40 | 8.30 | growth at 0.13951 µM (MDA-MB-231 [3]): 37.5%; growth at 1.25556 µM (MDA-MB-231 [4]): -12.2%; growth at 0.41852 µM (MDA-MB-231 [5]): 3.61%; growth at 3.76667 µM (MDA-MB-231 [6]): -11%; growth at 11.3 µM (MDA-MB-231 [7]): 8.61%; GI50 (MDA-MB-231 [8]): 100 nM; logD [9]: 1.64; pKd [10]: 6.05; pIC50 [11]: 6.44; growth at 0.0465 µM (MDA-MB-231 [12]): 73.5%; growth at 0.0155 µM (MDA-MB-231 [13]): 84%; growth at 0.00517 µM (MDA-MB-231 [14]): 82.2%; growth at 0.00172 µM (MDA-MB-231 [15]): 97% |
| CN[C@@H](C)C(=O)N[C@H](C(=O)N[C@H]1CCCN(CCc2ccccc2OC)C1)C(C)(C)C | 7.30 | 6.81 | – |
| CN[C@@H](C)C(=O)N[C@H](C(=O)N[C@H]1CCCCN(CCc2ccccc2)C1)C1CCCCC1 | 7.10 | – | – |
| CN[C@@H](C)C(=O)N[C@H](C(=O)N[C@H]1CCCN(C(=O)OCc2ccccc2)C1)C1CCCCC1 | 6.35 | – | – |
| CN[C@@H](C)C(=O)N[C@H](C(=O)N1CC[C@H]2CCN(CCc3ccccc3)C[C@H]21)C1CCCCC1 | – | – | logD [9]: 2.61 |
| CN[C@@H](C)C(=O)N[C@H](C(=O)N[C@H]1CCCN(CCc2ccc(Br)cc2)C1)C(C)(C)C | 7.62 | 7.15 | – |

| Structure (SMILES) | pIC50 [1] | pEC50 [2] | further results |
| --- | --- | --- | --- |
| CN[C@@H](C)C(=O)N[C@H](C(=O)N[C@H]1CCCN(CCc2ccc(C(F)(F)F)cc2)C1)C(C)(C)C | 7.31 | 6.52 | – |
| CN[C@@H](C)C(=O)N[C@H](C(=O)N[C@H]1CCCN(CCc2ccccc2F)C1)C1CCCCC1 | 7.48 | 6.98 | – |
| CN[C@@H](C)C(=O)N[C@H](C(=O)N[C@H]1CCN(C(=O)OCc2ccccc2)C1)C1CCCCC1 | 6.13 | – | – |
| CN[C@@H](C)C(=O)N[C@H](C(=O)N[C@H]1CCCN(CCc2ccc(F)cc2)C1)C(C)(C)C | 7.70 | 7.22 | – |
| CN[C@@H](C)C(=O)N[C@H](C(=O)N[C@H]1CCCN(CCc2ccc(Cl)cc2)C1)C(C)(C)C | 7.62 | 6.93 | – |
| CN[C@@H](C)C(=O)N[C@H](C(=O)N[C@H]1CCCN(CCc2cccc(F)c2)C1)C1CCCCC1 | 7.17 | 6.55 | – |
| CN[C@@H](C)C(=O)N[C@H](C(=O)N[C@H]1CCCN(S(=O)(=O)Cc2ccccc2)C1)C(C)(C)C | 5.41 | – | – |
| CN[C@@H](C)C(=O)N[C@H](C(=O)N[C@H]1CCCN(C(=O)c2ccccc2)C1)C1CCCCC1 | 5.47 | – | – |
| CN[C@@H](C)C(=O)N[C@H](C(=O)N[C@H]1CCCN(CCc2ccncc2)C1)C(C)(C)C | 6.23 | < 6.43 | – |
| CN[C@@H](C)C(=O)N[C@H](C(=O)N[C@H]1CCCN([C@@H]2CCCc3ccccc32)C1)C1CCCCC1 | 5.70 | – | – |
| CN[C@@H](C)C(=O)N[C@H](C(=O)N[C@H]1CCCN(CCCc2ccccc2)C1)C1CCCCC1 | 6.10 | – | – |
| CN[C@@H](C)C(=O)N[C@H](C(=O)N[C@H]1CCCN(CCc2ccccc2)C1)C1CCCCC1 | 7.40 | 6.95 | GI50 (MDA-MB-231 [8]): 1010 nM; pIC50 [11]: < 5.10 |
| CN[C@@H](C)C(=O)N[C@H](C(=O)N[C@H]1CCN(CCc2ccccc2)C1)C1CCCCC1 | 6.30 | – | – |
| CN[C@@H](C)C(=O)N[C@H](C(=O)N[C@H]1CCCN(CCc2ccccc2)C1)C(C)(C)C | 7.59 | – | – |
| CN[C@@H](C)C(=O)N[C@H](C(=O)N[C@H]1CCCN(CCc2ccc([N+](=O)[O-])cc2)C1)C(C)(C)C | 7.49 | 7.22 | – |
| CN[C@@H](C)C(=O)N[C@H](C(=O)N[C@H]1CCN(Cc2ccccc2)C1)C1CCCCC1 | 5.47 | – | – |
| CN[C@@H](C)C(=O)N[C@H](C(=O)N[C@H]1CCCN(C(=O)Cc2ccccc2)C1)C1CCCCC1 | 6.89 | – | – |
| CN[C@@H](C)C(=O)N[C@H](C(=O)N[C@H]1CCN(C(=O)Cc2ccccc2)C1)C1CCCCC1 | 6.11 | – | – |
| CN[C@@H](C)C(=O)N[C@H](C(=O)N[C@H]1CCN(CCCc2ccccc2)C1)C1CCCCC1 | 6.13 | – | – |
